Results published in paper PMC9871236, “Differentiated HT22 cells as a novel model for in vitro screening of serotonin reuptake inhibitors” (Frontiers in Pharmacology, 2023).

Molecular target: T1, serotonin transporter (SERT) (Mus musculus, UniProt Q60857)
T1 construct: gene Slc6a4
Experiment: fluoxetine-sensitive accumulation of fluorescent substrate ([…]) in HT22 cells
Format: cell-based

T1 sequence (Q60857 whole entry): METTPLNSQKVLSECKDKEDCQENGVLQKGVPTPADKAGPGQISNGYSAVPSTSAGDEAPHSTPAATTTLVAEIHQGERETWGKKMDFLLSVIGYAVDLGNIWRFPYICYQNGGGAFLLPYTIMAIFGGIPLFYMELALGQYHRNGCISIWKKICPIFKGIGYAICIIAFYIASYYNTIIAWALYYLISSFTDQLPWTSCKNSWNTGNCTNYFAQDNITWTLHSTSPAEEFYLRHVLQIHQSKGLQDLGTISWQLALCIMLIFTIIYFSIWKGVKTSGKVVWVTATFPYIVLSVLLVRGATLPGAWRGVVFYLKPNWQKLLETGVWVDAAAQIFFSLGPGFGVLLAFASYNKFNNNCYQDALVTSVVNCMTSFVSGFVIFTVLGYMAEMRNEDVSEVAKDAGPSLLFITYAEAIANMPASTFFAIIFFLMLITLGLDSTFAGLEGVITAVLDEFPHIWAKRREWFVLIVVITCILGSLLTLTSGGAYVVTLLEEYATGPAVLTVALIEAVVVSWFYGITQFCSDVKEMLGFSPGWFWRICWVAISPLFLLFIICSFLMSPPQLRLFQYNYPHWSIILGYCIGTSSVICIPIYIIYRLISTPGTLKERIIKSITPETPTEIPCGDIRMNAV

## CN(C)c1ccc(-c2cc[n+](C)cc2)cc1 [APP+, 4-(4-(dimethylamino)phenyl)-1-methylpyridinium iodide]
  fluoxetine-sensitive accumulation of fluorescent substrate (10 uM) in HT22 cells: A significant increase in APP^+ reuptake was detected in differentiated HT22 cells compared to undifferentiated cells
